Assay results reported in US9096589B2, “Heteroaromatic phenylimidazole derivatives as PDE10A enzyme inhibitors” (H. Lundbeck A/S, priority 2009, dated 2015).

Molecular target: PDE10A (Homo sapiens (Human), UniProt Q9Y233)
Assay: PDE10A inhibition assay
Type: biochemical
Method: Active PDE10A enzyme is prepared in a number of ways for use in PDE assays (Loughney, K. et al. Gene 1999, 234, 109-117; Fujishige, K. et al. Eur J. Biochem. 1999, 266, 1118-1127 and Soderling, S. et al. Proc. Natl. Acad. Sci. 1999, 96, 7071-7076). PDE10A can be expressed as full-length proteins or as truncated proteins, as long as they express the catalytic domain. PDE10A can be prepared in different cell types, for example insect cells or E. coli. An example of a method to obtain catalytically active PDE10A is as follows: The catalytic domain of human PDE10A (amino acids 440-779 from the sequence with accession number NP 006652) is amplified from total human brain total RNA by standard RT-PCR and is cloned into the BamH1 and Xho1 sites of the pET28a vector (Novagen). Expression in coli is performed according to standard protocols. Briefly, the expression plasmids are transformed into the BL21(DE3) E. coli strain, and 50 mL cultures inoculated with the cells allowed to grow to an OD600 of 0.4-0.6 before protein expression is induced with 0.5 mM IPTG. Following induction, the cells are incubated overnight at room temperature, after which the cells are collected by centrifugation. Cells expressing PDE10A are resuspended in 12 mL (50 mM TRIS-HCl-pH8.0, 1 mM MgCl2 and protease inhibitors). The cells are lysed by sonication, and after all cells are lysed, TritonX100 is added according to Novagen protocols.
A PDE10A assay may for example, be performed as follows: The assay is performed in 60 uL samples containing a fixed amount of the relevant PDE enzyme (sufficient to convert 20-25% of the cyclic nucleotide substrate); a buffer (50 mM HEPES7.6; 10 mM MgCl2; 0.02% Tween20), 0.1 mg/ml BSA, 225 pCi of ^3H-labelled cyclic nucleotide substrate, tritium labeled cAMP to a final concentration of 5 nM and varying amounts of inhibitors. Reactions are initiated by addition of the cyclic nucleotide substrate, and reactions are allowed to proceed for one hr at room temperature before being terminated through mixing with 15 uL 8 mg/mL yttrium silicate SPA beads (Amersham). The beads are allowed to settle for one hr in the dark before the plates are counted in a Wallac 1450 Microbeta counter. The measured signal can be converted to activity relative to an uninhibited control (100%) and IC50 values can be calculated using the Xlfit extension to EXCEL.

PDE10A, sequence (Q9Y233 716-1055): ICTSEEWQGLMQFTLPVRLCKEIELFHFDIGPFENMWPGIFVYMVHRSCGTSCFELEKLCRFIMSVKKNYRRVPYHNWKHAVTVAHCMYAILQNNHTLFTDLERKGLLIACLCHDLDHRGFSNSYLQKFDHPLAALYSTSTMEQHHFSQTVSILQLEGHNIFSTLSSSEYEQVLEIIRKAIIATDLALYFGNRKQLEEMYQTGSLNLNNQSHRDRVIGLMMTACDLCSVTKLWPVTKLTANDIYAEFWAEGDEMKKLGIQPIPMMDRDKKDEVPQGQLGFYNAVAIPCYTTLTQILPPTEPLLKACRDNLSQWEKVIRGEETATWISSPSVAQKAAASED

| Compound | IC50 |
| --- | --- |
| Cc1cccc2nc(CCc3nc(-c4cccs4)cn3C[C@@H](O)CN(C)C)nn12 [(S)-1-Dimethylamino-3-{2-[2-(5-methyl-[1,2,4]triazolo[1,5-a]pyridin-2-yl)-ethyl]-4-thiophen-2-yl-imidazol-1-yl}-propan-2-ol] | 47 nM |
| Cc1ccc(-c2c[nH]c(CCc3nc4cccc(C)n4n3)n2)o1 [5-Methyl-2-{2-[4-(5-methyl-furan-2-yl)-1H-imidazol-2-yl]-ethyl}-[1,2,4]triazolo[1,5-a]pyridine] | 34 nM |
| Cc1cc(C)n2cc(CCc3nc(-c4cccs4)cn3CC(O)CF)nc2n1 (centres unmarked) [1-{2-[2-(5,7-Dimethyl-imidazo[1,2-a]pyrimidin-2-yl)-ethyl]-4-thiophen-2-yl-imidazol-1-yl}-3-fluoro-propan-2-ol] | 14 nM |
| CNC[C@H](O)Cn1cc(-c2cccs2)nc1CCc1nc2cccc(C)n2n1 [(S)-1-Methylamino-3-{2-[2-(5-methyl-[1,2,4]triazolo[1,5-a]pyridin-2-yl)-ethyl]-4-thiophen-2-yl-imidazol-1-yl}-propan-2-ol] | 70 nM |
| Cc1ccc(-c2cn(C)c(CCc3nc4c(C)ncc(C)n4n3)n2)o1 [5,8-Dimethyl-2-{2-[1-methyl-4-(5-methyl-furan-2-yl)-1H-imidazol-2-yl]-ethyl}-[1,2,4]triazolo[1,5-a]pyrazine] | 6.8 nM |
| COc1ccc(C)n2nc(CCc3nc(-c4cncs4)cn3C)nc12 [8-Methoxy-5-methyl-2-[2-(1-methyl-4-thiazol-5-yl-1H-imidazol-2-yl)-ethyl]-[1,2,4]triazolo[1,5-a]pyridine] | 9.2 nM |
| Cc1cc(C)n2cc(/C=C/c3nc(-c4cncs4)cn3C)nc2n1 [5,7-Dimethyl-2-[(E)-2-(1-methyl-4-thiazol-5-yl-1H-imidazol-2-yl)-vinyl]-imidazo[1,2-a]pyrimidine] | 97 nM |
| COCC(O)Cn1cc(-c2cncs2)nc1CCc1cn2c(C)cc(C)nc2n1 (centres unmarked) [1-{2-[2-(5,7-Dimethyl-imidazo[1,2-a]pyrimidin-2-yl)-ethyl]-4-thiazol-5-yl-imidazol-1-yl}-3-methoxy-propan-2-ol] | 58 nM |
| Cc1cc(C)n2cc(/C=C/c3nc(-c4cscn4)cn3C)nc2n1 [5,7-Dimethyl-2-[(E)-2-(1-methyl-4-thiazol-4-yl-1H-imidazol-2-yl)-vinyl]-imidazo[1,2-a]pyrimidine] | 180 nM |
| COc1ccc(C)n2nc(CCc3nc(-c4cccnc4)cn3C)nc12 [8-Methoxy-5-methyl-2-[2-(1-methyl-4-pyridin-3-yl-1H-imidazol-2-yl)-ethyl]-[1,2,4]triazolo[1,5-a]pyridine] | 24 nM |
| Cc1ccc(-c2cn(C)c(CCc3nc4c(C)ccc(C)n4n3)n2)o1 [5,8-Dimethyl-2-{2-[1-methyl-4-(5-methyl-furan-2-yl)-1H-imidazol-2-yl]-ethyl}-[1,2,4]triazolo[1,5-a]pyridine] | 4.2 nM |
| COCCn1cc(-c2cccs2)nc1CCc1cn2c(C)cc(C)nc2n1 [2-{2-[1-(2-Methoxy-ethyl)-4-thiophen-2-yl-1H-imidazol-2-yl]-ethyl}-5,7-dimethyl-imidazo[1,2-a]pyrimidine] | 130 nM |
| COc1cccn2nc(CCc3nc(-c4cncs4)cn3C)nc12 [8-Methoxy-2-[2-(1-methyl-4-thiazol-5-yl-1H-imidazol-2-yl)-ethyl]-[1,2,4]triazolo[1,5-a]pyridine] | 36 nM |
| COc1cccn2nc(CCc3nc(-c4cccs4)c[nH]3)nc12 [8-Methoxy-2-[2-(4-thiophen-2-yl-1H-imidazol-2-yl)-ethyl]-[1,2,4]triazolo[1,5-a]pyridine] | 28 nM |
| CCCn1cc(-c2cccnc2)nc1CCc1nc2cccc(C)n2n1 [5-Methyl-2-[2-(1-propyl-4-pyridin-3-yl-1H-imidazol-2-yl)-ethyl]-[1,2,4]triazolo[1,5-a]pyridine] | 49 nM |
| Cc1cccc2nc(CCc3nc(-c4cccs4)cn3C)nn12 [5-Methyl-2-[2-(1-methyl-4-thiophen-2-yl-1H-imidazol-2-yl)-ethyl]-[1,2,4]triazolo[1,5-a]pyridine] | 9.2 nM |
| Cc1cccc2nc(CCc3nc(-c4cccs4)cn3C[C@@H](O)CN(C)CCO)nn12 [(S)-1-[(2-Hydroxy-ethyl)-methyl-amino]-3-{2-[2-(5-methyl-[1,2,4]triazolo[1,5-a]pyridin-2-yl)-ethyl]-4-thiophen-2-yl-imidazol-1-yl}-propan-2-ol] | 16 nM |
| Cc1cc(C)n2cc(/C=C/c3nc(-c4cccs4)cn3COCC[Si](C)(C)C)nc2n1 [5,7-Dimethyl-2-{(E)-2-[4-thiophen-2-yl-1-(2-trimethylsilanyl-ethoxymethyl)-1H-imidazol-2-yl]-vinyl}-imidazo[1,2-a]pyrimidine] | 81 nM |
| CNCC[C@H](O)Cn1cc(-c2cccs2)nc1CCc1nc2cccc(C)n2n1 [(S)-4-Methylamino-1-{2-[2-(5-methyl-[1,2,4]triazolo[1,5-a]pyridin-2-yl)-ethyl]-4-thiophen-2-yl-imidazol-1-yl}-butan-2-ol] | 51 nM |
| Cc1ccc(C)n2nc(CCc3nc(-c4nccs4)cn3C)nc12 [5,8-Dimethyl-2-[2-(1-methyl-4-thiazol-2-yl-1H-imidazol-2-yl)-ethyl]-[1,2,4]triazolo[1,5-a]pyridine] | 2.3 nM |
| COc1ccc(C)n2nc(CCc3nc(-c4cccs4)c[nH]3)nc12 [8-Methoxy-5-methyl-2-[2-(4-thiophen-2-yl-1H-imidazol-2-yl)-ethyl]-[1,2,4]triazolo[1,5-a]pyridine] | 1.1 nM |
| Cc1ccc(-c2cn(C)c(/C=C/c3nc4c(F)cccn4n3)n2)o1 [8-Fluoro-2-{(E)-2-[1-methyl-4-(5-methyl-furan-2-yl)-1H-imidazol-2-yl]-vinyl}-[1,2,4]triazolo[1,5-a]pyridine] | 520 nM |
| Cc1ncc(C)n2nc(CCc3nc(-c4cncs4)cn3C)nc12 [5,8-Dimethyl-2-[2-(1-methyl-4-thiazol-5-yl-1H-imidazol-2-yl)-ethyl]-[1,2,4]triazolo[1,5-a]pyrazine] | 6.9 nM |
| CCCn1cc(-c2cccs2)nc1CCc1nc2c(OC)ccc(C)n2n1 [8-Methoxy-5-methyl-2-[2-(1-propyl-4-thiophen-2-yl-1H-imidazol-2-yl)-ethyl]-[1,2,4]triazolo[1,5-a]pyridine] | 1.2 nM |
| Cc1ncc(C)n2nc(CCc3nc(-c4cnccn4)cn3C)nc12 [5,8-Dimethyl-2-[2-(1-methyl-4-pyrazin-2-yl-1H-imidazol-2-yl)-ethyl]-[1,2,4]triazolo[1,5-a]pyrazine] | 0.52 nM |
| Cc1cc(C)n2cc(/C=C/c3nc(-c4cnccn4)cn3C)nc2n1 [5,7-Dimethyl-2-[(E)-2-(1-methyl-4-pyrazin-2-yl-1H-imidazol-2-yl)-vinyl]-imidazo[1,2-a]pyrimidine] | 340 nM |
| Cc1ncc(C)n2nc(CCc3nc(-c4cccs4)cn3C)nc12 [5,8-Dimethyl-2-[2-(1-methyl-4-thiophen-2-yl-1H-imidazol-2-yl)-ethyl]-[1,2,4]triazolo[1,5-a]pyrazine] | 0.39 nM |
| Cc1cccc2nc(CCc3nc(-c4cccs4)cn3C[C@@H](O)CNC(C)C)nn12 [(S)-1-Isopropylamino-3-{2-[2-(5-methyl-[1,2,4]triazolo[1,5-a]pyridin-2-yl)-ethyl]-4-thiophen-2-yl-imidazol-1-yl}-propan-2-ol] | 46 nM |
| Cc1cc(C)n2cc(/C=C/c3nc(-c4ccco4)cn3C)nc2n1 [2-[(E)-2-(4-Furan-2-yl-1-methyl-1H-imidazol-2-yl)-vinyl]-5,7-dimethyl-imidazo[1,2-a]pyrimidine] | 25 nM |
